Columns and labels:
PBMC = settings: 12.5 µM

Compound | Average (percentage cell inhibition), Mastoparan PBMC (PBMC) | Average (percentage cell inhibition), Dmastoparan MDA-MB231 12.5uM (MDA-MB-231 cells)
CC[C@H](C)[C@H](NC(=O)[C@H](CCCCN)NC(=O)[C@H](CCCCN)NC(=O)[C@H](C)NC(=O)[C@H](CC(C)C)NC(=O)[C@H](C)NC(=O)[C@H](C)NC(=O)[C@H](CC(C)C)NC(=O)[C@H](C)NC(=O)[C@H](CCCCN)NC(=O)[C@H](CC(C)C)NC(=O)[C@H](CC(N)=O)NC(=O)[C@@H](N)Cc1ccc(O)cc1)C(=O)N[C@@H](CC(C)C)C(N)=O [Y1] | 14.8394% | 48.2987%
CC[C@H](C)[C@H](N)C(=O)N[C@@H](CC(N)=O)C(=O)N[C@@H](CC(C)C)C(=O)N[C@@H](CCCCN)C(=O)N[C@@H](CCC(=O)O)C(=O)N[C@@H](CC(C)C)C(=O)N[C@@H](C)C(=O)N[C@@H](C)C(=O)N[C@@H](CC(C)C)C(=O)N[C@@H](C)C(=O)N[C@@H](CCCCN)C(=O)N[C@@H](CCCCN)C(=O)N[C@H](C(=O)N[C@@H](CC(C)C)C(N)=O)[C@@H](C)CC [E5] | 3.135% | 15.4865%
CC[C@H](C)[C@H](N)C(=O)N[C@@H](Cc1ccc(O)cc1)C(=O)N[C@@H](CC(C)C)C(=O)N[C@@H](CCCCN)C(=O)N[C@@H](C)C(=O)N[C@@H](CC(C)C)C(=O)N[C@@H](C)C(=O)N[C@@H](C)C(=O)N[C@@H](CC(C)C)C(=O)N[C@@H](C)C(=O)N[C@@H](CCCCN)C(=O)N[C@@H](CCCCN)C(=O)N[C@H](C(=O)N[C@@H](CC(C)C)C(N)=O)[C@@H](C)CC [Y2] | 57.84% | 75.0702%
CC[C@H](C)[C@H](N)C(=O)N[C@@H](CC(N)=O)C(=O)N[C@@H](CC(C)C)C(=O)N[C@@H](CC(N)=O)C(=O)N[C@@H](C)C(=O)N[C@@H](CC(C)C)C(=O)N[C@@H](C)C(=O)N[C@@H](C)C(=O)N[C@@H](CC(C)C)C(=O)N[C@@H](C)C(=O)N[C@@H](CCCCN)C(=O)N[C@@H](CCCCN)C(=O)N[C@H](C(=O)N[C@@H](CC(C)C)C(N)=O)[C@@H](C)CC [N4] | 12.5207% | 50.001%
CC[C@H](C)[C@H](N)C(=O)N[C@@H](CC(N)=O)C(=O)N[C@@H](CC(C)C)C(=O)N[C@@H](CCCCN)C(=O)N[C@@H](C)C(=O)N[C@@H](CC(C)C)C(=O)N[C@@H](C)C(=O)N[C@@H](C)C(=O)N[C@@H](CC(C)C)C(=O)N[C@@H](C)C(=O)N[C@@H](CCCCN)C(=O)N[C@@H](CCCCN)C(=O)N[C@@H](Cc1c[nH]c2ccccc12)C(=O)N[C@@H](CC(C)C)C(N)=O [W13] | 24.9289% | 70.7641%
CC[C@H](C)[C@H](N)C(=O)N[C@@H](CC(N)=O)C(=O)NCC(=O)N[C@@H](CCCCN)C(=O)N[C@@H](C)C(=O)N[C@@H](CC(C)C)C(=O)N[C@@H](C)C(=O)N[C@@H](C)C(=O)N[C@@H](CC(C)C)C(=O)N[C@@H](C)C(=O)N[C@@H](CCCCN)C(=O)N[C@@H](CCCCN)C(=O)N[C@H](C(=O)N[C@@H](CC(C)C)C(N)=O)[C@@H](C)CC [G3] | 8.745% | 40.6724%
CC[C@H](C)[C@H](N)C(=O)N[C@@H](CC(N)=O)C(=O)N[C@@H](CC(C)C)C(=O)N[C@@H](CCCCN)C(=O)N[C@@H](C)C(=O)N[C@@H](CC(C)C)C(=O)N[C@@H](Cc1c[nH]c2ccccc12)C(=O)N[C@@H](C)C(=O)N[C@@H](CC(C)C)C(=O)N[C@@H](C)C(=O)N[C@@H](CCCCN)C(=O)N[C@@H](CCCCN)C(=O)N[C@H](C(=O)N[C@@H](CC(C)C)C(N)=O)[C@@H](C)CC [W7] | 70.534% | 92.6725%
